{"source": "paper PMC4979471", "about": "(Cell Death Discovery, 2015)", "assay_in_all_cases": "Kinase selectivity, P33-radiolabeled assay", "assay_type_in_all_cases": "biochemical", "details_in_all_cases": "10 μM ATP", "key": {"[1]": {"molecular_target": "T1, FGFR4 (Homo sapiens, UniProt P22455)", "T1 construct": "purchased Reaction Biology Corp", "T1 sequence (P22455 22-802)": "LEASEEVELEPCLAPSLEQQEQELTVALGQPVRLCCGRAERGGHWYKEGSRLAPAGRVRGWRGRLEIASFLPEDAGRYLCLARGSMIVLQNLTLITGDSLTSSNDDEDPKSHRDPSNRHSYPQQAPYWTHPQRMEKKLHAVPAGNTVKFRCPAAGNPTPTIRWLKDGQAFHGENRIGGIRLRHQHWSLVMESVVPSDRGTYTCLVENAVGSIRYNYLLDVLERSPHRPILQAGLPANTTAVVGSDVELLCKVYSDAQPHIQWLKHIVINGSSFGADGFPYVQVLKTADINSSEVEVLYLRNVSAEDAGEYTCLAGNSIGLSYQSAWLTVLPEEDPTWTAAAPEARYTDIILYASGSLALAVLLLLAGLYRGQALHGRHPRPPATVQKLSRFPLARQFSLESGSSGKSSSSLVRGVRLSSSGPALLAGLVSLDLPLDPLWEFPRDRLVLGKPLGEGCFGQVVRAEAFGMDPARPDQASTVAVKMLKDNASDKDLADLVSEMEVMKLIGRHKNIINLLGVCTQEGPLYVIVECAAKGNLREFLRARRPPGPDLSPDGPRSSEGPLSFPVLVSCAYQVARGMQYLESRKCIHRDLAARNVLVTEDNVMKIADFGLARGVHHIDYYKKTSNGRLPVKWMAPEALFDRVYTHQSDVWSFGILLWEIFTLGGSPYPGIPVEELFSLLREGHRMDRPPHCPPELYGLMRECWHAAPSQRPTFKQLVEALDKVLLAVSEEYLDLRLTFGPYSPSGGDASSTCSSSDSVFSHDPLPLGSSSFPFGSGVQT", "procedure,_shortened": "(§1)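 ATP at 10 μM; test article at 10 μM, single point, two replicates. Output is activity as % of DMSO.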"}, "[2]": {"molecular_target": "T2, TAOK1 (Homo sapiens, UniProt Q7L7X3)", "T2 construct": "purchased Reaction Biology Corp", "T2 sequence (Q7L7X3 1-1001)": "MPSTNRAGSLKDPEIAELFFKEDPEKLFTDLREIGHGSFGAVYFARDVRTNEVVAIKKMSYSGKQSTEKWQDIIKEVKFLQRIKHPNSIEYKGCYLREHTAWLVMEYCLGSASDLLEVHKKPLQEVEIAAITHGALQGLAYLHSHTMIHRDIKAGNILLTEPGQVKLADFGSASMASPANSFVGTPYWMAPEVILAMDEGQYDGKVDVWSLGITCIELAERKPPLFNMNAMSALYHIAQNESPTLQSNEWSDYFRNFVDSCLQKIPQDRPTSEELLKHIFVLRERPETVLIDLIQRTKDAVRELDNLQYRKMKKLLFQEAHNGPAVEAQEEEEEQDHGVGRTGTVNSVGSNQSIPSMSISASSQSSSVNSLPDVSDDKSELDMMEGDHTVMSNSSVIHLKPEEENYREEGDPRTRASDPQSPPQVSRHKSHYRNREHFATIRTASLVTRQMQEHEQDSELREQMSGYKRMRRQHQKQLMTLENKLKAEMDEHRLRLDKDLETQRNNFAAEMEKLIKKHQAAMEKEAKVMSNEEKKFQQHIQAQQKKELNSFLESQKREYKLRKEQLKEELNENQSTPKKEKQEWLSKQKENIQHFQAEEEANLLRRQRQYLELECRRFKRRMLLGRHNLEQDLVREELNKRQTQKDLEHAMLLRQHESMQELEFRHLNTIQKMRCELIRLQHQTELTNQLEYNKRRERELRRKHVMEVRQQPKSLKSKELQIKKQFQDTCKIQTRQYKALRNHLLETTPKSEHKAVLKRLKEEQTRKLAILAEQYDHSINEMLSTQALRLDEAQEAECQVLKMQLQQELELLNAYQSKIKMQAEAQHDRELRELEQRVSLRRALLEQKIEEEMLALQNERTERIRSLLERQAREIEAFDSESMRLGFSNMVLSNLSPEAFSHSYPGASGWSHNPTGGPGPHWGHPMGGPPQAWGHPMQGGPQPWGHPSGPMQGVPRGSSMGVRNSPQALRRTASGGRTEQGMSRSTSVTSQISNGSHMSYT", "procedure,_shortened": "as §1"}, "[3]": {"molecular_target": "T3, CHK1 (Homo sapiens, UniProt O14757)", "T3 construct": "purchased Reaction Biology Corp", "T3 sequence (O14757 1-476)": "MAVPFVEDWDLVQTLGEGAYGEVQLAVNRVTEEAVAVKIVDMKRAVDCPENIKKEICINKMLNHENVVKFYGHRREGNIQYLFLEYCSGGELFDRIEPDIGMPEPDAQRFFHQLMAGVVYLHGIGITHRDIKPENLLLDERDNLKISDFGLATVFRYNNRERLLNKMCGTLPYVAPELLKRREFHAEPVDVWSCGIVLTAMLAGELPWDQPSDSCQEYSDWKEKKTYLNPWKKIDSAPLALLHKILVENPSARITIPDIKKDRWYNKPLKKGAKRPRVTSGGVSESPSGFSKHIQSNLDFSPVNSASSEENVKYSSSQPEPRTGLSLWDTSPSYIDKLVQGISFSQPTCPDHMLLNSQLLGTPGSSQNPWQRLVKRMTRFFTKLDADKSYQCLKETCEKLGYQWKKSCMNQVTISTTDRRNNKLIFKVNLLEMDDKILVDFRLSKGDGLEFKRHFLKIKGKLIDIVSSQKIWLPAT", "procedure,_shortened": "as §1"}, "[4]": {"molecular_target": "T4, PAK3 (Homo sapiens, UniProt O75914)", "T4 construct": "purchased Reaction Biology Corp", "T4 sequence (O75914 whole entry)": "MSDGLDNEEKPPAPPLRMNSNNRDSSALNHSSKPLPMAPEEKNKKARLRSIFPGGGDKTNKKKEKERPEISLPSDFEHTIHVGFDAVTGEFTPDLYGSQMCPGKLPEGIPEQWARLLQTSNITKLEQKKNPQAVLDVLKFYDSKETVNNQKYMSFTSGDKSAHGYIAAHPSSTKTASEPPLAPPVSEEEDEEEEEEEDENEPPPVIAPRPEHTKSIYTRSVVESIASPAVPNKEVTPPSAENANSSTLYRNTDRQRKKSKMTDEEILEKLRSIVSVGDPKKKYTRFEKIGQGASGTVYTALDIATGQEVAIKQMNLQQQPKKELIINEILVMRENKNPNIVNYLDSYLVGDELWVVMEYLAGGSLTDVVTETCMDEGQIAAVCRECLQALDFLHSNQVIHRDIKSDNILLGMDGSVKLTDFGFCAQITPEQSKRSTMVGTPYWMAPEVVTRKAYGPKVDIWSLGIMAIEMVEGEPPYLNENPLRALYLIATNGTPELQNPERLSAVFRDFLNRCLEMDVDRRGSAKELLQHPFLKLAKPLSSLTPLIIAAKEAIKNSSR", "procedure,_shortened": "as §1"}, "[5]": {"molecular_target": "T5, LCK2/ICK (Homo sapiens, UniProt Q9UPZ9)", "T5 construct": "purchased Reaction Biology Corp", "T5 sequence (Q9UPZ9 1-632)": "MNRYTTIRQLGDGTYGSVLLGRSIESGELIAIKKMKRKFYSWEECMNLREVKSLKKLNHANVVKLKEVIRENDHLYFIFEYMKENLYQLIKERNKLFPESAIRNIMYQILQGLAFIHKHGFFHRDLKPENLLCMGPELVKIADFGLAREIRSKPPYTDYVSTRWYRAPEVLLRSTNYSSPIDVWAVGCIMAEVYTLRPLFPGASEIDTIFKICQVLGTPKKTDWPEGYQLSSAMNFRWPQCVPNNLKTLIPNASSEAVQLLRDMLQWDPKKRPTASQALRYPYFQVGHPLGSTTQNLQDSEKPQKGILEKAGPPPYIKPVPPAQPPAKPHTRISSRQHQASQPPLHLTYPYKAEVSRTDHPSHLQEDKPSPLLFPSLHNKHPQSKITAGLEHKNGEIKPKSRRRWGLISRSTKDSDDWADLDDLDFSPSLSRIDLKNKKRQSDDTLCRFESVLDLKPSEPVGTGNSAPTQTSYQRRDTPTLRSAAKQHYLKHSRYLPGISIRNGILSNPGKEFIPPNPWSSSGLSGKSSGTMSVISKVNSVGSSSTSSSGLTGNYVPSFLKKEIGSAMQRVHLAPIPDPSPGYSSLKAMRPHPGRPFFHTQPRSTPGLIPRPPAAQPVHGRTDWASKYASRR", "procedure,_shortened": "as §1"}, "[6]": {"molecular_target": "T6, STK38/NDR1 (Homo sapiens, UniProt Q15208)", "T6 construct": "purchased Reaction Biology Corp", "T6 sequence (Q15208 whole entry)": "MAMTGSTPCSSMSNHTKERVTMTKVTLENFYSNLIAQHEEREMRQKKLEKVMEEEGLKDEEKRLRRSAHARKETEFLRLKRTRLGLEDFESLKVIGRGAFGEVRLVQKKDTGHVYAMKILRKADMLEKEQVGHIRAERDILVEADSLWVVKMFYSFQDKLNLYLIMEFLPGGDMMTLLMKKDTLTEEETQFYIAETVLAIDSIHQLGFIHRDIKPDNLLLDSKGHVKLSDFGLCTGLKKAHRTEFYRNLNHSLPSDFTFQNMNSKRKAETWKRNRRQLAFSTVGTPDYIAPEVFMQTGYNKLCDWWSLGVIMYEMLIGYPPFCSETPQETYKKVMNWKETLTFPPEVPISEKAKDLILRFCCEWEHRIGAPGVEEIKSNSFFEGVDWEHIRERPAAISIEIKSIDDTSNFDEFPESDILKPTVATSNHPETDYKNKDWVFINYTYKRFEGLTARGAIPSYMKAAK", "procedure,_shortened": "as §1"}, "[7]": {"details": "read-out: % Enzyme Activity (relative to DMSO controls) AVG"}, "[8]": {"details": "read-out: % Enzyme Activity (relative to DMSO controls) Data 1"}, "[9]": {"details": "read-out: % Enzyme Activity (relative to DMSO controls) Data 2"}}, "note": "Read-outs that look alike come from different tables or passages of the source.", "data": [{"smiles": "CC(C)(C)C(=O)N1N=CC[C@H]1c1ccccc1", "note": "[GSK′963]", "values": [{"measurement": "remaining activity at 10 µM", "setting": "[1]; [7]", "value": 93.5, "unit": "%"}, {"measurement": "remaining activity at 10 µM", "setting": "[1]; [8]", "value": 91.5, "unit": "%"}, {"measurement": "remaining activity at 10 µM", "setting": "[1]; [9]", "value": 95.6, "unit": "%"}, {"measurement": "remaining activity at 10 µM", "setting": "[2]; [7]", "value": 99.3, "unit": "%"}, {"measurement": "remaining activity at 10 µM", "setting": "[2]; [8]", "value": 101, "unit": "%"}, {"measurement": "remaining activity at 10 µM", "setting": "[2]; [9]", "value": 97.8, "unit": "%"}, {"measurement": "remaining activity at 10 µM", "setting": "[3]; [7]", "value": 115, "unit": "%"}, {"measurement": "remaining activity at 10 µM", "setting": "[3]; [8]", "value": 122, "unit": "%"}, {"measurement": "remaining activity at 10 µM", "setting": "[3]; [9]", "value": 109, "unit": "%"}, {"measurement": "remaining activity at 10 µM", "setting": "[4]; [7]", "value": 103, "unit": "%"}, {"measurement": "remaining activity at 10 µM", "setting": "[4]; [8]", "value": 102, "unit": "%"}, {"measurement": "remaining activity at 10 µM", "setting": "[4]; [9]", "value": 105, "unit": "%"}, {"measurement": "remaining activity at 10 µM", "setting": "[5]; [7]", "value": 101, "unit": "%"}, {"measurement": "remaining activity at 10 µM", "setting": "[5]; [8]", "value": 100, "unit": "%"}, {"measurement": "remaining activity at 10 µM", "setting": "[5]; [9]", "value": 101, "unit": "%"}, {"measurement": "remaining activity at 10 µM", "setting": "[6]; [7]", "value": 102, "unit": "%"}, {"measurement": "remaining activity at 10 µM", "setting": "[6]; [8]", "value": 100, "unit": "%"}, {"measurement": "remaining activity at 10 µM", "setting": "[6]; [9]", "value": 104, "unit": "%"}]}]}
